Among the data in PubChem BioAssay (NCI) are GI50 and TGI values, retold here.

SMILES strings stand for the structures.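 Cultured in 96-well plates, cells were exposed to test compound for 48 hours across five concentrations. GI50: concentration for 50% inhibition of growth. TGI is the concentration that stops growth completely.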 A value given as a limit tells only on which side of the number the result lay.

Test systems include LOX IMVI melanoma; NCI/ADR-RES ovarian; OVCAR-5 ovarian; SK-MEL-5 melanoma; TK-10 renal; HOP-62 NSCLC; SR leukemia; IGROV1 ovarian; NCI-H23 lung; A498 renal.
Test in all cases: NCI anticancer screen, dose series, 48 h

Regarding `CC1=C(C(=O)Nc2ccc(F)c(Cl)c2)C(c2cccc(Oc3ccccc3)c2)NC(=S)N1` (stereo unspecified), the GI50 was 8.77 µM in the test on LOX IMVI melanoma; 27.8 µM with NCI/ADR-RES ovarian; 19.2 µM in the test with OVCAR-5 ovarian; 10.2 µM in the test with SK-MEL-5 melanoma; 16.3 µM with TK-10 renal; 14.7 µM in the test with HOP-62 NSCLC. The GI50 with SR leukemia was 14.3 µM; in the test on IGROV1 ovarian it was 10.6 µM; in the test with NCI-H23 lung, 19.3 µM. Besides, the TGI was 20.2 µM in the test with LOX IMVI melanoma; above 50 µM with NCI/ADR-RES ovarian; 34.8 µM in the test with OVCAR-5 ovarian; 19.6 µM in the test on SK-MEL-5 melanoma; above 50 µM in the test with TK-10 renal; 30.1 µM in the test with HOP-62 NSCLC. The TGI in the test on SR leukemia is above 50 µM; in the test on IGROV1 ovarian it was 37 µM; in the test on NCI-H23 lung, 39.4 µM.
`Clc1ccc2c(c1)N(C1CCCN(Cc3ccccc3)C1)c1ccccc1S2` (stereo unspecified): the GI50 in the test on LOX IMVI melanoma was 6 µM; with NCI/ADR-RES ovarian it was 3.24 µM; with OVCAR-5 ovarian, 14.6 µM; with SK-MEL-5 melanoma it was 5.71 µM; with TK-10 renal, 71.8 µM; with A498 renal, 14.7 µM. Moreover, the GI50 in the test on HOP-62 NSCLC is 22.3 µM; in the test on SR leukemia it was 3.01 µM; in the test with NCI-H23 lung, 9.33 µM. In addition, the TGI in the test with LOX IMVI melanoma is 35.8 µM; in the test with NCI/ADR-RES ovarian it was 13.7 µM; in the test on OVCAR-5 ovarian, above 100 µM; in the test with SK-MEL-5 melanoma it was 25.3 µM; with TK-10 renal, above 100 µM; in the test on A498 renal, above 100 µM. The results for the TGI in the test on HOP-62 NSCLC, in the test on SR leukemia and with NCI-H23 lung were above 100 µM, 32.7 µM and above 100 µM, respectively.
As for `COc1cc(-c2nc3ccccc3o2)cc(CN2CCCCC2)c1O`, the GI50 is 5.79 µM with NCI/ADR-RES ovarian; 5.31 µM with OVCAR-5 ovarian; 1.09 µM in the test with SK-MEL-5 melanoma; 31.2 µM with TK-10 renal; 10 µM in the test on A498 renal; 2.58 µM with HOP-62 NSCLC. Besides, the GI50 in the test with SR leukemia is 5.24 µM; in the test with IGROV1 ovarian, 14 µM; in the test with NCI-H23 lung, 1.54 µM. Moreover, the TGI with NCI/ADR-RES ovarian is 76.4 µM; in the test on OVCAR-5 ovarian, 20.7 µM; in the test with SK-MEL-5 melanoma, 2.3 µM; in the test with TK-10 renal, above 85.8 µM; in the test with A498 renal, 24.5 µM; with HOP-62 NSCLC it was 9.96 µM. In addition, the TGI is 71.9 µM with SR leukemia, above 100 µM in the test on IGROV1 ovarian and 5.26 µM in the test with NCI-H23 lung.
As for `CN(C)Cc1ccc(NC(=O)c2cncc(C#Cc3cnc(N)c4ncccc34)c2)cc1F`, the GI50 is 2.2 µM with NCI/ADR-RES ovarian; 2.08 µM in the test with OVCAR-5 ovarian; 1.7 µM with SK-MEL-5 melanoma; 14.5 µM with TK-10 renal; 6 µM in the test on A498 renal; 13.4 µM with HOP-62 NSCLC. The GI50 was 1.93 µM in the test on SR leukemia, 2.13 µM in the test on IGROV1 ovarian and 13.7 µM in the test on NCI-H23 lung. In addition, the TGI came to 4.54 µM with NCI/ADR-RES ovarian; 3.92 µM with OVCAR-5 ovarian; 3.29 µM in the test on SK-MEL-5 melanoma; 34.9 µM with TK-10 renal; 29 µM with A498 renal; 42.8 µM in the test on HOP-62 NSCLC. In addition, the values for the TGI in the test with SR leukemia, with IGROV1 ovarian and in the test on NCI-H23 lung were 5.93 µM, 3.96 µM and 34 µM, respectively.
As to `COS(C)(=O)=O`, the TGI in the test with LOX IMVI melanoma, with NCI/ADR-RES ovarian, in the test on OVCAR-5 ovarian, with TK-10 renal, with A498 renal and in the test with HOP-62 NSCLC was above 2 µM each time. Also, the TGI in the test with SR leukemia, with IGROV1 ovarian and with NCI-H23 lung was above 2 µM each time.
For the compound `O=C1C=C(OCC=C(C(F)(F)F)C(F)(F)F)c2ccccc2C1=O`, the GI50 was 1.56 µM in the test with LOX IMVI melanoma; 3.21 µM in the test on NCI/ADR-RES ovarian; 2.45 µM in the test on OVCAR-5 ovarian; 1.51 µM in the test on SK-MEL-5 melanoma; 4.36 µM with A498 renal; 1.87 µM with HOP-62 NSCLC. The GI50 with SR leukemia is 2.02 µM. In addition, the TGI in the test with LOX IMVI melanoma was determined as 3.46 µM; with NCI/ADR-RES ovarian it was 14.7 µM; in the test on OVCAR-5 ovarian, 5.87 µM; in the test on SK-MEL-5 melanoma, 2.95 µM; in the test on A498 renal it was 16.6 µM; in the test with HOP-62 NSCLC, 3.69 µM. Besides, the TGI in the test on SR leukemia was 7.43 µM.
Take `O=C(Nc1cc(Cl)ccc1O)c1ccccc1Nc1ccnc(C(F)(F)F)c1`: the GI50 in the test on LOX IMVI melanoma is 3.2 µM; with NCI/ADR-RES ovarian, 3.06 µM; in the test with OVCAR-5 ovarian, 5.6 µM; with SK-MEL-5 melanoma it was 2.1 µM; in the test with TK-10 renal, 4.72 µM; in the test on A498 renal, 2.25 µM. The figures for the GI50 in the test on HOP-62 NSCLC, in the test on SR leukemia and in the test with NCI-H23 lung were 2.16 µM, 2.83 µM and 2.63 µM, respectively. For the same compound, the TGI with LOX IMVI melanoma was 22.7 µM; with NCI/ADR-RES ovarian it was 9.29 µM; with OVCAR-5 ovarian, 23.3 µM; in the test on SK-MEL-5 melanoma it was 4.27 µM; in the test on TK-10 renal it was 16.8 µM; in the test on A498 renal, 6.4 µM. The TGI in the test on HOP-62 NSCLC was found to be 5.21 µM; in the test on SR leukemia, 11.6 µM; with NCI-H23 lung it was 9.19 µM.
As for `CCCCNC(=S)OCCC(C)CCCC(C)C` (stereo unspecified), the TGI in the test on LOX IMVI melanoma, with OVCAR-5 ovarian, with SK-MEL-5 melanoma, with TK-10 renal, with A498 renal and in the test with HOP-62 NSCLC was above 100 µM throughout. In addition, the TGI in the test with SR leukemia, with IGROV1 ovarian and with NCI-H23 lung was above 100 µM throughout.
Regarding `NCCCNc1nc2ccccc2c2c(=O)c3cccc(Cl)c3sc12`, the GI50 in the test on NCI/ADR-RES ovarian was 1.71 µM; with OVCAR-5 ovarian, 1.55 µM; in the test on SK-MEL-5 melanoma, 1.58 µM; in the test on TK-10 renal, 2.31 µM; in the test with A498 renal, 1.02 µM; in the test on SR leukemia it was 0.606 µM. Besides, the GI50 in the test with NCI-H23 lung was 1.4 µM. The TGI in the test with NCI/ADR-RES ovarian was found to be 3.25 µM; in the test with OVCAR-5 ovarian, 3.04 µM; with SK-MEL-5 melanoma it was 2.94 µM; with TK-10 renal, 3.95 µM; in the test with A498 renal it was 2.74 µM; in the test on SR leukemia, 2.99 µM. Further, the TGI with NCI-H23 lung amounted to 2.85 µM.
